Read-outs that look alike come from different tables or passages of the source.
Details: amide bond, salicylaldehyde ester ligation, TFA, 2 steps

## CC(C)C[C@@H]1NC(=O)[C@H](Cc2ccccc2)NC(=O)[C@H](CO)NC(=O)[C@H](C)NC(=O)[C@H](Cc2ccccc2)NC1=O [SFLFA]
From H-Ser-Phe-Leu-Phe-Ala-OPhCHO?, 15-membered ring
  ring closure, yield after HPLC: 35%

## CC(C)C[C@@H]1NC(=O)[C@H](Cc2ccccc2)NC(=O)[C@H](C)NC(=O)[C@H](CCCCN)NC(=O)CNC(=O)[C@H](CO)NC1=O [SGKAFL]
From H-Ser-Gly-Lys-Ala-Phe-Leu-OPhCHO?, 18-membered ring
  ring closure, yield after HPLC: 39%

## CC(C)C[C@@H]1NC(=O)CNC(=O)[C@H](CO)NC(=O)CNC(=O)[C@H](C)NC(=O)[C@H](Cc2ccccc2)NC(=O)CNC(=O)[C@H](Cc2ccccc2)NC1=O [SGLFGFAG]
From H-Ser-Gly-Leu-Phe-Gly-Phe-Ala-Gly-OPhCHO?, 24-membered ring
  ring closure, yield after HPLC: 65%

## CC(C)C[C@@H]1NC(=O)CNC(=O)[C@H](CO)NC(=O)CNC(=O)[C@H](C)NC(=O)[C@H](Cc2ccccc2)NC(=O)CNC(=O)[C@H](Cc2ccc(O)cc2)NC1=O [SGLYGFAG]
From H-Ser-Gly-Leu-Tyr-Gly-Phe-Ala-Gly-OPhCHO?, 24-membered ring
  ring closure, yield after HPLC: 52%

## CC(C)C[C@@H]1NC(=O)[C@H](CO)NC(=O)[C@H](CC(C)C)NC(=O)[C@H](CO)NC1=O [SLSL]
From H-Ser-Leu-Ser-Leu-OPhCHO?, 12-membered ring
  ring closure, yield after HPLC: 20%

## C[C@@H](O)[C@@H]1NC(=O)CNC(=O)[C@H](Cc2ccccc2)NC(=O)[C@H](Cc2ccccc2)NC(=O)CNC(=O)[C@H](Cc2ccccc2)NC(=O)[C@H](Cc2ccccc2)NC1=O [TFFGFFG]
From H-Thr-Phe-Phe-Gly-Phe-Phe-Gly-OPhCHO?, 21-membered ring
  ring closure, yield after HPLC: 56%

## CC(C)C[C@@H]1NC(=O)CNC(=O)[C@H]([C@@H](C)O)NC(=O)CNC(=O)[C@H](C)NC(=O)[C@H](Cc2ccccc2)NC(=O)CNC(=O)[C@H](Cc2ccccc2)NC1=O [TGLFGFAG]
From H-Thr-Gly-Leu-Phe-Gly-Phe-Ala-Gly-OPhCHO?, 24-membered ring
  ring closure, yield after HPLC: 63%

Source: patent publication US9453044
